Experimental data as given in ChEMBL document CHEMBL5729403, “Small molecule modulators of the BTB domain of Keap1” (2022).

Assay: HEK293 luciferase: Purpose of the AssayThe purpose of this assay is to identify small molecule inhibitors of Keap1, preventing Keap1 binding to Nrf2, and thus activating the Nrf2 signalling pathway in HEK-293 ARE firefly luciferase transiently transfected cells. HEK-293 cells express wild-type Keap1 protein and therefore have low constitutive levels of Nrf2 protein and Nrf2-dependent transcription. […] When Keap1 is inhibited, Nrf2 signalling is activated, and there is an increase in luciferase expression and light emission.Assay WorkflowCryopreserved HEK ARE luciferase cells were rapidly thawed in a 37° C. water bath and resuspended in assay culture medium (DMEM, 10% FCS, 2 mM L-glutamine). The cell suspension was pelleted by centrifugation ([…]; 300 g) using a Heraeus benchtop centrifuge. Supernatant was removed and the pellet was gently resuspended in 5 mL culture medium per vial. Cell viability and cell number was measured using an Invitrogen Countess automated cell counter (typical viability 80%), and cells were diluted to a density of 5.0×10^5 cells/mL.Cells were then plated out into white 384-well plates (Greiner 781080) using a Multidrop Combi, 20 μL/well, to give 10,000 cells/well. As appropriate, test compounds had been added to wells prior to dispensing cells using an Echo 555 acoustic dispenser (Labcyte). Plates were left at room temperature for ˜10 min to promote even cell settling across the plate before incubation for 18 h at 37° C., 95% humidity and 5% CO2.After 18 h incubation, plates were removed from the incubator and allowed to cool to room temperature for 30 min, before 10 μL per well SteadyGlo reagent detection reagent was added (as per manufacturer's instructions, 10 min before required 10 mL room temperature buffer was added to one vial of lyophilised substrate and inverted several times to fully dissolve). Plates were then incubated in the dark for 30 min before reading on an Envision plate reader.Preparation of Compounds for ScreeningCompounds were acoustically dispensed using a Labcyte Echo, using a 10 pt dose curve with a top concentration of 100 μM. Assay wells were backfilled with DMSO to a total of 60 nL to maintain 0.3% (v/v) DMSO through the assay.Data Analysis Software and Calculation of ResultsThe Stimulator signal was defined using 30 μM tert-butyl hydroquinone (tBHQ) and the Neutral signal by DMSO vehicle control. All calculations were performed using GeneData.

Row | SMILES | EC50
1 | CCc1cccc(C2(OC)C=C(C#N)C(=O)C(C)(C)C2)n1 (centres undefined) | > 30000 nM
2 | COC1(c2cccc(-c3ccccc3)n2)C=C(C#N)C(=O)C(C)(C)C1 (centres undefined) | 10000 nM
3 | COC1(c2cccc(C)n2)C=C(C#N)C(=O)C(C)(C)C1 (centres undefined) | 269 nM
4 | COC1(c2ccc(C)cc2)C=C(C#N)C(=O)C(C)(C)C1 (centres undefined) | 309 nM
